Assay results: PubChem BioAssay (NCI)
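Grown in 96-well plates, cells were treated for 48 hours with each compound at five concentrations. Insufficient inhibition: endpoint recorded as highest concentration tested. Here, GI50 denotes the concentration required for 50% inhibition of growth. Definition used: TGI = concentration required for complete inhibition of growth.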

Columns and labels:
Test in all cases: inhibition of tumour cell growth, NCI panel, 48 h
NCI/ADR-RES ovarian = test system: NCI/ADR-RES ovarian
COLO 205 colon = test system: COLO 205 colon
A549 NSCLC = test system: A549 NSCLC
SNB-19 CNS = test system: SNB-19 CNS
OVCAR-3 ovarian = test system: OVCAR-3 ovarian
ACHN renal = test system: ACHN renal
UO-31 renal = test system: UO-31 renal
NCI-H460 lung = test system: NCI-H460 lung
U251 CNS = test system: U251 CNS
SN12C renal = test system: SN12C renal

SMILES	TGI (NCI/ADR-RES ovarian) [µM]	TGI (COLO 205 colon) [µM]	TGI (A549 NSCLC) [µM]	TGI (SNB-19 CNS) [µM]	TGI (OVCAR-3 ovarian) [µM]	TGI (ACHN renal) [µM]	TGI (UO-31 renal) [µM]	TGI (NCI-H460 lung) [µM]	TGI (U251 CNS) [µM]	TGI (SN12C renal) [µM]	GI50 (NCI/ADR-RES ovarian) [µM]	GI50 (COLO 205 colon) [µM]	GI50 (SNB-19 CNS) [µM]	GI50 (OVCAR-3 ovarian) [µM]	GI50 (UO-31 renal) [µM]	GI50 (NCI-H460 lung) [µM]	GI50 (U251 CNS) [µM]	GI50 (SN12C renal) [µM]
CO[C@@]12C[C@@H](CNC(=O)c3cc(Br)c[nH]3)O[C@@H]1NC(=O)N2	> 100	> 100	> 100	> 100	> 100	> 100	> 100	> 100	> 100	> 100								
COc1ccc(/C=c2/[nH]c(=O)/c(=C\c3ccc(OCc4ccccc4)cn3)[nH]c2=O)cc1	> 100	> 100	> 100	> 100	> 100	> 100	> 100	> 100	> 100	> 100								
CN(C)CCNc1c([N+](=O)[O-])cc2c3c(cccc13)C(=O)N(CCN(C)C)C2=O	9.32	2.71		8.33	5.44		4.2	2.26	6.44	9.28								
O=C(O)C(Cc1ccccc1)N1C(=O)c2ccccc2C1=O (stereo not drawn)	> 100	> 100	> 100	> 100	> 100	> 100	> 100	> 100	> 100	> 100								
CC(=O)OCCC[C@@H]1C(=C(C)C)CCC2[C@@]1(C)CC[C@@]1(C)C[C@](C)(CCC=C(C)C)CC[C@]21C (stereo partly drawn)	> 100	> 100	> 100	> 100	> 100	> 100	46.1	> 100	> 100	> 100								
CCN(CC)/C(=C\Cl)Nc1ccccn1		> 100	> 100	> 100	> 100	> 100	> 100	> 100	> 100	> 100								
OC1C=C2C3CN(Cc4cc5c(cc43)OCO5)[C@H]2C[C@@H]1O (stereo partly drawn)	75.6	> 100	> 100	76.1	> 100	33.1	71.4	13.2	50.4	> 100								
O=C1CC(N2C(=O)/C(=C/C(Cl)=C\c3ccc([N+](=O)[O-])cc3)SC2=S)C(=O)N1c1ccc(Cl)cc1 (stereo not drawn)	6.19	3.76		2.97	2.62		3.3	> 100	2.47	11.1	1.01	1.4	1.17	0.721	1.07	3.3	0.478	1.69
O=C1CCC(NC(=O)Cc2ccc(O)cc2)C(=O)N1 (stereo not drawn)		> 2500	> 2500	> 2500	> 2500	> 2500	> 2500	> 2500	> 2500	> 2500								
O=C(NN1C(=O)/C(=C/c2ccc(Cl)cc2)N=C1c1ccccc1)c1c(Cl)c(Cl)c(Cl)c(Cl)c1-c1nc2ccccc2[nH]1	42.2	> 100	> 100	> 100	> 100	75.3	> 100	16.2		86.4								
CC(=O)C1(c2ccccc2)CCCN(C)CC1 (stereo not drawn)	> 100	> 100		> 100	> 100		> 100	> 100	> 100									
COc1ccc(OC)c2sc(N3C(=O)/C(=C/c4ccccc4S)N=C3c3ccccc3)nc12	> 100	> 100	> 100	> 100	> 100	> 100	77.2	> 100	73.8	81.9								
O=C1CC(n2cccc2)c2cc(Br)sc21 (stereo not drawn)	> 100	> 100	> 100	> 100	> 100	> 100	> 100	> 100	> 100	> 100								
CC(=O)C1=C(O)C2(O)C(=O)c3c(c(C)c4ccc(C)c(O)c4c3O)CC2C(N)C1=O (stereo not drawn)	13.7	3.34	11.5	23.9	13.2	7.19	11.1	9.2	7.82	9.79	1.89							
Cc1nc(Cl)c(C)c(Cl)n1	> 100	> 100	> 100	> 100	> 100	> 100		> 100	> 100	> 100								
